Data set [1] in a line: Measurement of Log P values by HPLC on reversed phase columns (EEC directive 79/831 Annex V.A8). The format is physicochemical. Conditions: reversed phase HPLC column. The essentials:
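Reversed-phase HPLC with UV detection per EEC 79/831 Annex V.A8, linear 10–95% acetonitrile gradient. Aqueous eluent: 0.1% formic acid (acidic), 0.001 M ammonium acetate (neutral), or 0.1% phosphoric acid (acidic); multiple values in one method joined by "+".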

Data set [2] has as its system Alternaria brassicae. Nature of the data set: In vivo preventive test on Alternaria brassicae (leaf spot on radish or cabbage). Particulars: 500 ppm of active ingredient, preventive spray on radish or cabbage, evaluated 3 to 4 days after inoculation, read-out: efficacy. The essentials: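 Young radish or cabbage plants were sprayed with compound dissolved in DMSO/acetone/Tween 80 and diluted in water; controls received solvent only. Inoculation by spraying A. brassicae spore suspension 24 h later, then 3–4 days at 20 °C and 100% relative humidity.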

The subject of data set [3] is Botrytis cinerea. The experiment in a line: In vivo preventive test on Botrytis cinerea (grey mould). Conditions: 500 ppm of active ingredient, preventive spray on gherkin or cabbage, evaluated 4 to 5 days after inoculation, read-out: efficacy. The essentials:
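Young gherkin or cabbage plants were sprayed with compound in DMSO/acetone/Tween 80 diluted in water, then inoculated 24 hours later with a B. cinerea spore suspension. Incubation lasted 4 to 5 days: gherkin at 17° C., 90% relative humidity; cabbage at 20° C., 100% relative humidity.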

Data set [4] concerns Sphaerotheca fuliginea. Nature of the data set: In vivo preventive test on Sphaerotheca fuliginea (powdery mildew on cucurbits). Conditions: Podosphaera fuliginea, 192 h; 500 ppm of active ingredient; preventive spray on gherkin; evaluated 8 days after inoculation; read-out: efficacy. As to the method: B-4. in vivo preventive test on Sphaerotheca fuliginea (powdery mildew on cucurbits) [table] The active ingredients were made soluble and homogenized in a mixture of Dimethyl sulfoxide/Acetone/Tween® 80 and then diluted in water to the desired concentration. The young plants of gherkin were treated by spraying the active ingredient prepared as described above. Control plants were treated only with an aqueous solution of Acetone/Dimethyl sulfoxide/Tween® 80. After 24 hours, the plants were contaminated by spraying the leaves with an aqueous suspension of Sphaerotheca fuliginea spores. The contaminated gherkin plants were incubated for 8 days at 20° C. and at 70-80% relative humidity.

Data set [5] deals with Alternaria alternata. Nature of the data set: Alternaria alternata in vitro cell test. Conditions: 120 h, 20 ppm of active ingredient, liquid culture, 5 days incubation, spectrometric measurement of mycelium growth, read-out: efficacy (inhibition of fungal growth). The class given is cell-based. The essentials: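 Liquid culture assay in which A. alternata spores in medium received DMSO-solubilized compound (final DMSO ≤1%). After 5 days, mycelium growth was measured spectrometrically. Inhibition was calculated against fungicide-free control wells.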

Data set [6] relates to Colletotrichum lindemuthianum. Nature of the data set: B-8. Colletotrichum lindemuthianum in vitro cell test. The class given is cell-based. Particulars: 144 h, 20 ppm of active ingredient, 6 days incubation, liquid culture, absorbance, read-out: efficacy (inhibition of fungal growth). The essentials: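 Spore suspension of C. lindemuthianum in liquid medium exposed to DMSO-solubilized compounds (final DMSO ≤1%) for 6 days. Mycelial growth read by absorbance, with inhibition calculated relative to compound-free control wells.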

Data set [7] relates to Botrytis cinerea. Nature of the data set: B-11. Botrytis cinerea in vitro cell test. Conditions: 144 h, 20 ppm of active ingredient, 6 days incubation, liquid culture, absorbance, read-out: efficacy (inhibition of fungal growth). The class given is cell-based. Put shortly: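 B. cinerea spores were grown in liquid culture with compound (DMSO ≤1% final). Mycelium growth was measured spectrometrically after 6 days, with inhibition taken as absorbance relative to untreated control wells.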

Where [8] appears, read: method [a]: LC-UV, acidic range, 0.1% formic acid in water and acetonitrile as eluent.

Regarding `Cc1ccc(CCNC(=O)c2c(Oc3cccc(C(F)(F)F)c3)nnc3ccc(C)cc23)c(C)c1` [I-003], in data set [1] (setting [8]), the chromatographic logP (usually lipophilicity estimated from chromatographic retention) turned out to be 4.47. The pest or weed control at 500 ppm in data set [2], in data set [3] and in data set [4] was 90 to 100% each time. The inhibition at 20 ppm in data set [5] and in data set [6] was 90 to 100% in each case.

In data set [1] (setting [8]), `Cc1cc(Br)ccc1[C@@H](F)CNC(=O)c1c(Oc2cccc(C(F)(F)F)c2)cnc2ccccc12` (racemic) [I-063] came in with a chromatographic logP of 4.59. Also, the pest or weed control at 500 ppm in data set [2], in data set [3] and in data set [4] was 90 to 100% throughout. The inhibition at 20 ppm in data set [5], in data set [6] and in data set [7] was 90 to 100% each time.

Take `O=C(NC[C@@H](F)c1ccc(Cl)c(Cl)c1)c1c(Oc2cccc(C(F)(F)F)c2)cnc2ccccc12` (racemic) [I-059]: the chromatographic logP in data set [1] (setting [8]) worked out at 4.47. Moreover, the pest or weed control at 500 ppm in data set [3] was in the range of 90 to 100%; in data set [4] it was 70 to 79%. The inhibition at 20 ppm in data set [5] and in data set [7] was 90 to 100% throughout.

As for `COc1cc([C@@H](F)CNC(=O)c2c(Oc3cccc(C(F)(F)F)c3)cnc3ccccc23)ccc1Cl` (racemic) [I-058], the chromatographic logP in data set [1] (setting [8]) amounted to 4.05. Moreover, the pest or weed control at 500 ppm in data set [2], in data set [3] and in data set [4] was 90 to 100% in each case. Also, the inhibition at 20 ppm in data set [5], in data set [6] and in data set [7] was 90 to 100% throughout.

`O=C(NCC(F)(F)c1ccc(Cl)cc1)c1c(Oc2cncc(C(F)(F)F)c2)nnc2ccccc12` [I-026] returned a chromatographic logP in data set [1] (setting [8]) of 3.61. For the same compound, the pest or weed control at 500 ppm in data set [2], in data set [3] and in data set [4] was 90 to 100% in each case. Besides, the inhibition at 20 ppm in data set [5] and in data set [6] was 90 to 100% throughout.

With `Cc1ccc(C(F)(F)CNC(=O)c2c(Oc3cccc(C(F)(F)F)c3)nnc3ccccc23)c(C)c1` [I-008], the chromatographic logP amounted to 4.27 in data set [1] (setting [8]); 4.22 in data set [1] (method [b]: LC-UV, neutral range, 0.001 molar ammonium acetate solution in water and acetonitrile as eluent). Moreover, the pest or weed control at 500 ppm in data set [2] was in the range of 80 to 89%; in data set [3] it was 90 to 100%; in data set [4] it was 90 to 100%. Moreover, the inhibition (as a rule, how much of the control response was suppressed) at 20 ppm in data set [5] is 90 to 100%; in data set [6], 80 to 89%.

As for `O=C(NCC(F)(F)c1ccc(Br)cc1Cl)c1c(Oc2cncc(C(F)(F)F)c2)nnc2ccccc12` [I-027], the chromatographic logP in data set [1] (setting [8]) came out at 4.08. In addition, the pest or weed control at 500 ppm in data set [2], in data set [3] and in data set [4] was 90 to 100% throughout. For the same compound, the inhibition at 20 ppm in data set [5] and in data set [6] was 90 to 100% in each case.

In the case of `O=C(NC[C@H](F)c1ccc(C2CC2)cc1Cl)c1c(Oc2cccc(C(F)(F)F)c2)cnc2ccccc12` (racemic) [I-062], the chromatographic logP in data set [1] (setting [8]) came out at 4.7. The pest or weed control at 500 ppm in data set [2], in data set [3] and in data set [4] was 90 to 100% each time. The inhibition at 20 ppm in data set [5], in data set [6] and in data set [7] was 90 to 100% in each case.

`Cc1ccc(CCNC(=O)c2c(Oc3cccc(C(F)(F)F)c3)nnc3cc(C)ccc23)c(C)c1` [I-004, N-[2-(2,4-dimethylphenyl)ethyl]-7-methyl-3-[3-(trifluoro-methyl)phenoxy]cinnoline-4-carboxamide]: the chromatographic logP in data set [1] (setting [8]) turned out to be 4.51. The pest or weed control at 500 ppm in data set [2], in data set [3] and in data set [4] was 90 to 100% throughout. The inhibition at 20 ppm in data set [5] and in data set [6] was 90 to 100% throughout.

With `Cc1cc(C(F)F)ccc1[C@@H](F)CNC(=O)c1c(Oc2cccc(C(F)(F)F)c2)cnc2ccccc12` (racemic) [I-057], the chromatographic logP in data set [1] (setting [8]) came out at 4.08. Also, the pest or weed control at 500 ppm in data set [2], in data set [3] and in data set [4] was 90 to 100% throughout. For the same compound, the inhibition at 20 ppm in data set [5], in data set [6] and in data set [7] was 90 to 100% in each case.

As for `O=C(NCC(F)(F)c1ccc(Br)cc1Cl)c1c(Oc2cccc(C(F)(F)F)c2)nnc2ccccc12` [I-021], in data set [1] (setting [8]), the chromatographic logP was 4.58. The pest or weed control at 500 ppm in data set [2], in data set [3] and in data set [4] was 90 to 100% each time. Besides, the inhibition at 20 ppm in data set [5] and in data set [6] was 90 to 100% each time.

`Cc1ccc(C(F)(F)CNC(=O)c2c(Oc3cccc(C(F)(F)F)c3)nnc3c2CCOCC3)c(C)c1` [I-114, N-[2-(2,4-dimethylphenyl)-2,2-difluoro-ethyl]-3-[3-(trifluoro-methyl)phenoxy]-5,6,8,9-tetrahydrooxepino[4,5-c]pyridazine-4-carboxamide] registered a chromatographic logP in data set [1] (setting [8]) of 3.58. Besides, the pest or weed control at 500 ppm in data set [2] was 70 to 79%; in data set [3] it was 90 to 100%; in data set [4], 90 to 100%. Also, the inhibition at 20 ppm in data set [5] and in data set [6] was 90 to 100% throughout.

Consider `Cc1cccc(Oc2nnc3ccccc3c2C(=O)N[C@@H](C)c2cccc(C(F)(F)F)c2)c1` (racemic) [I-020], for which, in data set [1] (setting [8]), the chromatographic logP was found to be 3.79. Moreover, the pest or weed control at 500 ppm in data set [2] is 90 to 100%; in data set [3] it was 90 to 100%; in data set [4] it was 70 to 79%. Besides, the inhibition at 20 ppm in data set [5] was in the range of 80 to 89%; in data set [6], 70 to 79%.

In turn, `Cc1ccc(C(F)(F)CNC(=O)c2c(Oc3cncc(C(F)(F)F)c3)nnc3ccccc23)c(C)c1` [I-025] yielded a chromatographic logP in data set [1] (setting [8]) of 3.87. The pest or weed control at 500 ppm in data set [2], in data set [3] and in data set [4] was 90 to 100% throughout. Moreover, the inhibition at 20 ppm in data set [5] and in data set [6] was 90 to 100% throughout.

Compound `O=C(NC[C@H](F)c1ccc(Cl)cc1Cl)c1c(Oc2cccc(C(F)(F)F)c2)cnc2ccccc12` (racemic) [I-043] showed a chromatographic logP in data set [1] (setting [8]) of 4.46. The pest or weed control at 500 ppm in data set [2], in data set [3] and in data set [4] was 90 to 100% in each case. Also, the inhibition at 20 ppm in data set [5] and in data set [6] was 90 to 100% in each case.

Consider `O=C(NC[C@H](F)c1ccc(Br)cc1Cl)c1c(Oc2cccc(C(F)(F)F)c2)cnc2ccccc12` (racemic) [I-041], for which the chromatographic logP in data set [1] (setting [8]) was determined as 4.56. In addition, the pest or weed control at 500 ppm in data set [2], in data set [3] and in data set [4] was 90 to 100% each time. Also, the inhibition at 20 ppm in data set [5] and in data set [6] was 90 to 100% in each case.

For `O=C(NCC(F)(F)c1ccc(Cl)cc1)c1c(Oc2cccc(Cl)c2)nnc2ccccc12` [I-012], the pest or weed control at 500 ppm in data set [2], in data set [3] and in data set [4] was 90 to 100% in each case. In addition, the inhibition at 20 ppm in data set [5] and in data set [6] was 90 to 100% in each case.

In data set [1] (setting [8]), `O=C(NCC(F)(F)c1ccc(Cl)cc1)c1c(Oc2cccc(C(F)(F)F)c2)nnc2ccccc12` [I-023] had a chromatographic logP of 4.13. The pest or weed control at 500 ppm in data set [2], in data set [3] and in data set [4] was 90 to 100% each time. The inhibition at 20 ppm in data set [5] and in data set [6] was 90 to 100% throughout.

Consider `O=C(NCC(F)(F)c1ccc(Br)cc1Cl)c1c(Oc2cccc(C(F)F)c2)nnc2ccccc12` [I-035], for which, in data set [1] (setting [8]), the chromatographic logP was 4.14. Besides, the values for the pest or weed control at 500 ppm in data set [2], in data set [3] and in data set [4] were 90 to 100%, 90 to 100% and 70 to 79%, respectively. In addition, the inhibition at 20 ppm in data set [5] and in data set [6] was 90 to 100% throughout.

For the origin of these results see patent publication US20230192617A1, “AZABICYCLIC(THIO)AMIDES AS FUNGICIDAL COMPOUNDS” (Bayer CropScience Aktiengesellschaft, priority 2020, published 2023).
